System: New Zealand rabbits with normal intraocular pressure
Assay: Intraocular pressure reduction, normal intraocular pressure, eye drops in both eyes for 14 days (Operation I)
Assay type: in vivo, New Zealand white rabbits
Settings: for Change in intraocular pressure: vs negative control
From the text: An intraocular pressure reduction effect and potential ocular toxicity of the compound of formula (I) were inspected with rabbits with normal intraocular pressure by repeated administration of eye drops for 14 days.
Male New Zealand white rabbits, aged 97 to 127 days, weighted 2.6-3.5 kg, purchased from Pizhou Oriental Breeding Co., Ltd.
The Male New Zealand white rabbits were randomly divided into 7 groups according to body weights, 6 rabbits/group. The animals in Groups 1 to 7 were administrated dropwise with a solvent/control/test article in both eyes in an administration volume of 50 μL/eye, once a day for 14 consecutive days, and the day of first administration was recorded as Day 1. The intraocular pressures of the animals were measured before administration, as well as at 1, 2, 4, 6, 8 and 10 h after administration, respectively. On Days 2 to 14, the intraocular pressures of animals in the K-115 administration group were measured at 1 h after daily administration; and intraocular pressures of the animals in the remaining groups were measured at 4 h after daily administration.

[1] = 4 mg/mL once a day, Day 2, 1 h after daily administration
[2] = 4 mg/mL once a day, Day 3, 1 h after daily administration
[3] = 4 mg/mL once a day, Day 4, 1 h after daily administration
[4] = 4 mg/mL once a day, Day 5, 1 h after daily administration
[5] = 4 mg/mL once a day, Day 6, 1 h after daily administration
[6] = 4 mg/mL once a day, Day 7, 1 h after daily administration
[7] = 4 mg/mL once a day, Day 8, 1 h after daily administration
[8] = 4 mg/mL once a day, Day 9, 1 h after daily administration
[9] = 4 mg/mL once a day, Day 10, 1 h after daily administration
[10] = 4 mg/mL once a day, Day 11, 1 h after daily administration
[11] = 4 mg/mL once a day, Day 12, 1 h after daily administration
[12] = 4 mg/mL once a day, Day 13, 1 h after daily administration
[13] = 4 mg/mL once a day, Day 14, 1 h after daily administration
[14] = 4 mg/mL, Day 1, 1 h after administration
[15] = 4 mg/mL, Day 1, 2 h after administration
[16] = 4 mg/mL, Day 1, 4 h after administration
[17] = 4 mg/mL, Day 1, 6 h after administration
[18] = 4 mg/mL, Day 1, 8 h after administration
[19] = 4 mg/mL, Day 1, 10 h after administration
[20] = 4 mg/mL, Day 1, before administration

Q: `C[C@H]1CNCCCN1S(=O)(=O)c1cccc2cncc(F)c12` [K-115, reference compound] was tested. Which “Average intraocular pressure in both eyes” value (“Average intraocular pressure” for short) [1] did it give?
A: 6.83 mmHg

Q: What about the “Change in intraocular pressure” value [1] of the same compound?
A: 4.25 mmHg

Q: What about the “Average intraocular pressure” value [2] of the same compound?
A: 6.81 mmHg

Q: And the “Change in intraocular pressure” value [2]?
A: 3.58 mmHg

Q: And the “Average intraocular pressure” value [3]?
A: 6.92 mmHg

Q: And the “Change in intraocular pressure” value [3]?
A: 3.69 mmHg

Q: What about the “Average intraocular pressure” value [4] of the same compound?
A: 6.67 mmHg

Q: And the “Change in intraocular pressure” value [4]?
A: 4.3 mmHg

Q: What about the “Average intraocular pressure” value [5] of the same compound?
A: 6.75 mmHg

Q: What about the “Change in intraocular pressure” value [5] of the same compound?
A: 2.56 mmHg

Q: What about the “Average intraocular pressure” value [6] of the same compound?
A: 7.39 mmHg

Q: What about the “Change in intraocular pressure” value [6] of the same compound?
A: 2.67 mmHg

Q: And the “Average intraocular pressure” value [7]?
A: 7.53 mmHg

Q: What about the “Change in intraocular pressure” value [7] of the same compound?
A: 3.78 mmHg

Q: And the “Average intraocular pressure” value [8]?
A: 7.78 mmHg

Q: What about the “Change in intraocular pressure” value [8] of the same compound?
A: 1.66 mmHg

Q: What about the “Average intraocular pressure” value [9] of the same compound?
A: 7.94 mmHg

Q: And the “Change in intraocular pressure” value [9]?
A: 1.81 mmHg

Q: What about the “Average intraocular pressure” value [10] of the same compound?
A: 7.94 mmHg

Q: And the “Change in intraocular pressure” value [10]?
A: 1.75 mmHg

Q: And the “Average intraocular pressure” value [11]?
A: 7.89 mmHg

Q: And the “Change in intraocular pressure” value [11]?
A: 1.64 mmHg

Q: And the “Average intraocular pressure” value [12]?
A: 8.25 mmHg

Q: And the “Change in intraocular pressure” value [12]?
A: 3.14 mmHg

Q: What about the “Average intraocular pressure” value [13] of the same compound?
A: 8.50 mmHg

Q: And the “Change in intraocular pressure” value [13]?
A: 2.47 mmHg

Q: What about the “Average intraocular pressure” value [14] of the same compound?
A: 7.72 mmHg

Q: And the “Change in intraocular pressure” value [14]?
A: 2.59 mmHg

Q: And the “Average intraocular pressure” value [15]?
A: 9.00 mmHg

Q: What about the “Change in intraocular pressure” value [15] of the same compound?
A: 1.97 mmHg

Q: And the “Average intraocular pressure” value [16]?
A: 9.67 mmHg

Q: And the “Change in intraocular pressure” value [16]?
A: 1.64 mmHg

Q: And the “Average intraocular pressure” value [17]?
A: 10.56 mmHg

Q: And the “Change in intraocular pressure” value [17]?
A: 1.38 mmHg

Q: And the “Average intraocular pressure” value [18]?
A: 10.28 mmHg

Q: What about the “Change in intraocular pressure” value [18] of the same compound?
A: 2.69 mmHg

Q: And the “Average intraocular pressure” value [19]?
A: 12.81 mmHg

Q: What about the “Change in intraocular pressure” value [19] of the same compound?
A: 1.61 mmHg

Q: What about the “Average intraocular pressure” value [20] of the same compound?
A: 10.83 mmHg

Q: What about the “Change in intraocular pressure” value [20] of the same compound?
A: −0.94 mmHg

Reference: US12624017B2, “Salt form of isoquinolinone type compound as rock inhibitor and preparation method therefor” (GUANGZHOU OCUSUN OPHTHALMIC BIOTECHNOLOGY CO., LTD., priority 2020, dated 2026)
